In US4349546A, “D-Allose derivative and preparation method therefor” (Wakamoto Pharmaceutical Co., Ltd., priority 1980, dated 1982):

System: Peripheral leukocyte count
Assay: Effects on peripheral leukocyte count (Test Example 6)
Format: in vivo, DDY mice
Text: Comparison of effects of CNUA and Me-CCNU* on peripheral leukocyte count:
Six-week old DDY mice each weighing 22±1 g; one group comprising 5 male mice.
CNUA and Me-CCNU were given intraperitoneally on the first day. The, blood was drawn from a tail vein at time intervals to determine the leukocyte count. The samples were used in the form of a solution in an isotonic sodium chloride solution.

For `O=NN(CCCl)C(=O)N[C@@H]1[C@H](O)[C@@H](CO)OC(O)[C@@H]1O` (stereo partly drawn) [CNUA, 3-[3-(2-chloroethyl)-3-nitrosoureido]-3-deoxy-D-allose], the “Peripheral leukocyte count after the administration” value (from here on “Peripheral leukocyte count”) (30 mg/kg ip, 2 day) was 84.0 % based on the control, the “Peripheral leukocyte count” value (30 mg/kg ip, 4 day) was 82.2 % based on the control and the “Peripheral leukocyte count” value (30 mg/kg ip, 7 day) was 85.6 % based on the control. For the same molecule, the “Peripheral leukocyte count” value (30 mg/kg ip, 10 day) was 84.7 % based on the control, the “Peripheral leukocyte count” value (30 mg/kg ip, 14 day) was 159 % based on the control and the “Peripheral leukocyte count” value (60 mg/kg ip, 2 day) was 78.2 % based on the control. For the same molecule, the “Peripheral leukocyte count” value (60 mg/kg ip, 4 day) was 60.0 % based on the control, the “Peripheral leukocyte count” value (60 mg/kg ip, 7 day) was 64.5 % based on the control and the “Peripheral leukocyte count” value (60 mg/kg ip, 10 day) was 80.0 % based on the control. The “Peripheral leukocyte count” value (60 mg/kg ip, 14 day) was 100 % based on the control and the myelotoxicity (as compared with Me-CCNU) was “relatively low myelotoxicity”.
